Test results reported in patent publication US20250002527A1, “STEROID COMPOUND AND CONJUGATE THEREOF” (DUALITY BIOLOGICS (SUZHOU) CO., LTD., priority 2021, published 2025).

Legend:
MR = biological target: T1, MR (Homo sapiens, UniProt P08235); experiment: MR luciferase reporter gene experiment; assay type: cell-based; details: HEK293 transfected with pBIND-MR
T1 construct: expressed in transfected cells; host or cells: HEK293
T1 sequence (P08235 1-984): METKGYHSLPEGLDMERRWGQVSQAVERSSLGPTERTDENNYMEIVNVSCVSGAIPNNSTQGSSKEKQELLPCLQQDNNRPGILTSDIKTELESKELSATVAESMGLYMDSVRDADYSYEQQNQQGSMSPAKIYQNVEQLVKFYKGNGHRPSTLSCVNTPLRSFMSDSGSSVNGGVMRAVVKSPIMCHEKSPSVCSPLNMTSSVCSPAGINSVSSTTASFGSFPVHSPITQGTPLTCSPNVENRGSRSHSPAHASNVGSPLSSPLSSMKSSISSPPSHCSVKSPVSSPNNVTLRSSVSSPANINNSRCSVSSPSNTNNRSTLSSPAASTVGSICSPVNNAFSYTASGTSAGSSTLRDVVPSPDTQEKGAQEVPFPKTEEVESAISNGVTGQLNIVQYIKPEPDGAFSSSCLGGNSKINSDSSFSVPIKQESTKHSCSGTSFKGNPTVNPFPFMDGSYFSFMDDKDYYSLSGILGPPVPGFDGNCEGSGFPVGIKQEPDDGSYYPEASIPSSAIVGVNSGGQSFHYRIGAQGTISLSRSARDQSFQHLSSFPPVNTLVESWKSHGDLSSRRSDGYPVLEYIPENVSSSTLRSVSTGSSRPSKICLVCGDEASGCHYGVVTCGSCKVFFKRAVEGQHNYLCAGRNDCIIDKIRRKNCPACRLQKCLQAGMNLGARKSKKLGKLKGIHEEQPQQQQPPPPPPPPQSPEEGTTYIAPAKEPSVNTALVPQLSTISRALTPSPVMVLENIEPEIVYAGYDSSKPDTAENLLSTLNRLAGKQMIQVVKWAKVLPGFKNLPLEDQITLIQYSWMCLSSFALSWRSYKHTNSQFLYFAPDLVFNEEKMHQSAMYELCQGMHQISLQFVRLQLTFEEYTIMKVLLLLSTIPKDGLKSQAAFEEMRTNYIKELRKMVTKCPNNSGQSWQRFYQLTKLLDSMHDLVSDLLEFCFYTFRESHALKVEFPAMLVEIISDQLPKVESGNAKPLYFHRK
Procedure: HEK293 cells were cultured in DMEM+10% FBS medium in a carbon dioxide incubator humidified at 37° C. at 5% carbon dioxide.
• 1) HEK293 cells were trypsinized, and the HEK293 cell resuspension was adjusted to 200,000 cell/mL in medium (96 well plate: 100 μL/well). • 2) Transfection reagent mixtures were prepared according to the table below, mixed well and left at room temperature for 20 minutes.
• 3) The prepared transfection mixtures were added to 10 mL of the cell density-adjusted resuspension, mixed well by turning the mixtures upside down, and seeded into a 96-well plate at a volume of 100 μL/well. • 4) The 96-well plate was incubated in a humidified incubator at 37° C. and 5% carbon dioxide for 24 hours.
The test plate was detected using the Dual-Glo Luciferase Assay System kit from Promega, and the fluorescence signal of Firefly Luciferase and the fluorescence signal of Renilla Luciferase were read using Enspire, respectively.
Y is the agonism and X is the concentration of the compound.

human PBMC cells = experiment: IFN-α secretion from PBMC under R848 stimulation (compounds); assay type: cell-based; details: R848 5 μM, 24 hours, mean ± standard deviation
Procedure: The compounds of the present application were tested for their inhibitory effect on the production of peripheral blood monocytes. The peripheral blood monocytes were treated in vitro with the ligand-drug conjugate at different concentrations, and IFNα and TNFα generated by the peripheral blood monocytes were quantitatively detected after a certain time. The compounds of the present invention were evaluated for in-vitro activity.
The cryopreserved human PBMC cells were resuspended in a complete medium and counted, and the cell suspension was adjusted to 2.5×10*6 cells/mL with the culture medium. After the suspension was centrifuged to collect the cells the next day, the cells were resuspended using fresh culture medium. Test compounds were diluted to 4-fold final concentration in cell culture medium, 50 μL of the compounds were added into a 96-well cell plate, and 100 μL of diluted cells ([…]) were added into each well of the 96-well plate containing the compounds, followed by addition of 50 μL R848 to a final concentration of 5 μM. The cell plate was incubated at 37° C. with 5% CO2 for 24 hours. The supernatant was collected, and the TNF-α and IFN-α concentration levels in the supernatant were detected using an ELISA kit.
50 μL of biotinylated antibody working solution was added into each well. After mixing well, the plate was covered with the plate-sealing membrane and incubated at room temperature for 3 hours. […] The procedure was repeated for 3 times. 100 μL of Streptavidin-HRP working solution was added into each well. The plate was covered with the plate-sealing membrane and incubated at room temperature for 20 minutes. The plate was washed for 3 times, 100 μL of TMB liquid was added into each well, and the plate was incubated for 25 minutes at room temperature (18-25° C.) in the dark. The reaction was stopped by adding 100 μL stop solution rapidly to each well. The reading at a wavelength of 450 nm was detected by an M2e instrument within 10 minutes after termination.
The contents of TNF-α and IFN-α were calculated from the OD450 values.

## C[C@]12C=CC(=O)C=C1CC[C@@H]1[C@@H]2[C@@H](O)C[C@@]2(C)[C@H]1C[C@H]1O[C@@H](c3ccc(Cc4ccc(CO)cc4)cc3)O[C@]12C(=O)CO [Compound 4]
MR
  EC50: > 1000 nM
Human PBMC cells; compound 4 nM
  IFN-α secretion (pg/mL) from PBMC under R848 stimulation: 13.2 ± 13.2 pg/mL
Human PBMC cells; compound 20 nM
  IFN-α secretion (pg/mL) from PBMC under R848 stimulation: 27.9 ± 27.9 pg/mL
Human PBMC cells; compound 100 nM
  IFN-α secretion (pg/mL) from PBMC under R848 stimulation: 0 ± 0 pg/mL
